Like-named read-outs stand apart in the source and are kept apart here. Where a SMILES comes first, the peptide text is derived from it. [ ]: non-standard residue; d: D form. The star is where a group is joined. DOTA = O=C(O)CN1CCN(CC(=O)O)CCN(CC(=O)*)CCN(CC(=O)O)CC1; βAla = NCCC(=O)O
What was measured:
[1] = test system: MDA-MB-231 tumor xenografts; test: In vivo tumor targeting and biodistribution in nude mice bearing MDA-MB-231 xenografts; set-up: species or system mouse
Method: (§1) (with 43% wash away from the tumors over 2 h). The amount of radioactivity found for the ^68Ga-labeled AngII peptide analog in the tumors was always more than the radioactivity detected in the blood and muscle. A general pattern of better tumor-to-blood and tumor-to-muscle uptake ratios was noticed over time for ^68Ga-labeled AngII peptide.
(§2) In vivo, tumor uptake was conducted as reported previously. In summary, ~5 million MDA-MB-231 cells in 200 µL sterile PBS were implanted subcutaneously into each nude mouse. Once tumor growth became sufficient (~50–500 mg), tumor uptake and organ biodistribution were carried out after injecting the radiolabeled AngII peptide. The percent of the injected dose per gram in the tumors was determined by using a custom-designed Quattro Pro X9 spreadsheet (Corel Corporation, Austin, TX, USA).

[2] = as above; set-up: species or system mouse; conditions: mouse, total radioactivity
Method: as §1, §2

athymic nude mice = test: In vivo metabolic stability (radio-HPLC of mouse urine); conditions: urine collected at 2 h p.i.
Method: Athymic nude mice were utilized for the metabolism study to determine the potential radio-metabolites in the urine. An aliquot of urine sample was collected by manual void at the time of sacrifice and analyzed by radio-HPLC. […] The results signified that most of the radioactivity (>80%) was still bound to the ^68Ga-AngII peptide analog (Figure 2). There were no major metabolites detected in the urine sample at 2 h p.i. A small hydrophilic metabolite peak was found at about 4 min for the urine sample. This finding confirms that the ^68Ga-AngII peptide analog is not prone to fast in vivo disintegration and is also in agreement with the results of high in vitro complex strength.
To determine the radio-metabolites of the ^68Ga-labeled AngII peptide analog, an aliquot of urine sample was collected by manual void at the time of sacrifice and mixed with an equal volume of CH3CN. The mixture was centrifuged at 7000 rpm for 5 min. The resulting supernatant was collected and passed through a 0.20 μm Millex-LG filter unit to remove any precipitate or foreign particles and then analyzed by radio-HPLC.

AT1 receptor = test: In vivo receptor-blocking study in nude mice bearing MDA-MB-231 xenografts; conditions: mouse, total radioactivity, 2 h p.i., co-injected ~100 µg unlabeled AngII peptide analog, mean ± SD
Method: (§3) To validate the selectivity of the AngII peptide analog for its intended target AT1 receptors, we performed a receptor-blocking assay by administering a blocking dose of ~100 μg of unlabeled AngII peptide premixed with the radiolabeled AngII peptide analog at 2 h p.i. […] Furthermore, a varying influence pattern of the pharmacological receptor blocking dose was detected mainly in the intestines, heart, and kidneys as the uptake in these organs was reduced to variable degrees depending on the degree of AT1 receptor expression by these organs and tissues (Table 2).
(§4) For the receptor-blocking study, an additional group of mice was injected with the radiolabeled AngII peptide premixed with unlabeled AngII peptide (~100 μg) to serve as a receptor-blocking agent. In vivo, biodistribution and blocking studies were performed at 2 h p.i. as stated before.

[3] = as above; conditions: mouse, total radioactivity, nude mice with MDA-MB-231 xenografts, 2 h p.i., co-injected ~100 µg unlabeled AngII peptide analog, mean ± SD
Method: as §3, §4

For `CC[C@H](C)[C@H](NC(=O)[C@H](Cc1ccc(O)cc1)NC(=O)[C@@H](NC(=O)[C@H](CCCNC(=N)N)NC(=O)[C@H](CC(=O)O)NC(=O)CCNC(=O)[C@H](CCCCN)NC(=O)CN1CCN(CC(=O)O)CCN(CC(=O)O)CCN(CC(=O)O)CC1)C(C)C)C(=O)N[C@@H](Cc1c[nH]cn1)C(=O)N1CCC[C@H]1C(=O)N[C@@H](Cc1ccccc1)C(=O)N[C@@H](Cc1c[nH]c2ccccc12)C(=O)N[C@@H](CCCCN)C(=O)N[C@@H](Cc1ccc(O)cc1)C(N)=O` [^68Ga-DOTA-AngII peptide, metal not drawn] ({DOTA}-K[βAla]DRVYIHPFWKY-NH2), the “Wash away from the tumors” value ([1]; MDA-MB-231 tumors in nude mice, over 2 h (45 min vs 2 h p.i.)) was 43%, the “Clearance through the hepatobiliary system (liver + intestines)” value ([1]; tumor-bearing nude mice) was “below 7 % ID” and the tissue uptake at 0.75 h ([2]; blood, nude mice with MDA-MB-231 xenografts, 45 min p.i., mean ± SD, n = 4-6, read-out: Blood uptake) was 0.55 ± 0.12 %ID/g. It also gave a tissue uptake at 2 h ([2]; blood, nude mice with MDA-MB-231 xenografts, 2 h p.i., mean ± SD, n = 4-6, read-out: Blood uptake) of 0.22 ± 0.1 %ID/g, a tissue uptake at 0.75 h ([2]; heart, nude mice with MDA-MB-231 xenografts, 45 min p.i., mean ± SD, n = 4-6, read-out: Heart uptake) of 0.88 ± 0.3 %ID/g and a tissue uptake at 2 h ([2]; heart, nude mice with MDA-MB-231 xenografts, 2 h p.i., mean ± SD, n = 4-6, read-out: Heart uptake) of 0.65 ± 0.19 %ID/g. It also gave a tissue uptake at 0.75 h ([2]; intestines without contents, nude mice with MDA-MB-231 xenografts, 45 min p.i., mean ± SD, n = 4-6, read-out: Intestines uptake (portion without contents)) of 1.2 ± 0.35 %ID/g, a tissue uptake at 2 h ([2]; intestines without contents, nude mice with MDA-MB-231 xenografts, 2 h p.i., mean ± SD, n = 4-6, read-out: Intestines uptake (portion without contents)) of 1.05 ± 0.31 %ID/g and a tissue uptake at 0.75 h ([2]; kidneys, nude mice with MDA-MB-231 xenografts, 45 min p.i., mean ± SD, n = 4-6, read-out: Kidneys uptake) of 4.89 ± 1.97 %ID/g. The tissue uptake at 2 h ([2]; kidneys, nude mice with MDA-MB-231 xenografts, 2 h p.i., mean ± SD, n = 4-6, read-out: Kidneys uptake) was 3.97 ± 1.2 %ID/g, the tissue uptake at 0.75 h ([2]; liver, nude mice with MDA-MB-231 xenografts, 45 min p.i., mean ± SD, n = 4-6, read-out: Liver uptake) was 0.77 ± 0.22 %ID/g and the tissue uptake at 2 h ([2]; liver, nude mice with MDA-MB-231 xenografts, 2 h p.i., mean ± SD, n = 4-6, read-out: Liver uptake) was 0.65 ± 0.28 %ID/g. It also gave a tissue uptake at 0.75 h ([2]; lungs, nude mice with MDA-MB-231 xenografts, 45 min p.i., mean ± SD, n = 4-6, read-out: Lungs uptake) of 0.57 ± 0.16 %ID/g, a tissue uptake at 2 h ([2]; lungs, nude mice with MDA-MB-231 xenografts, 2 h p.i., mean ± SD, n = 4-6, read-out: Lungs uptake) of 0.39 ± 0.15 %ID/g and a tissue uptake at 0.75 h ([2]; muscle/bone, nude mice with MDA-MB-231 xenografts, 45 min p.i., mean ± SD, n = 4-6, read-out: Muscle/bone uptake) of 0.4 ± 0.17 %ID/g. It also gave a tissue uptake at 2 h ([2]; muscle/bone, nude mice with MDA-MB-231 xenografts, 2 h p.i., mean ± SD, n = 4-6, read-out: Muscle/bone uptake) of 0.19 ± 0.1 %ID/g, a tissue uptake at 0.75 h ([2]; pancreas, nude mice with MDA-MB-231 xenografts, 45 min p.i., mean ± SD, n = 4-6, read-out: Pancreas uptake) of 0.47 ± 0.11 %ID/g and a tissue uptake at 2 h ([2]; pancreas, nude mice with MDA-MB-231 xenografts, 2 h p.i., mean ± SD, n = 4-6, read-out: Pancreas uptake) of 0.29 ± 0.05 %ID/g. The tissue uptake at 0.75 h ([2]; spleen, nude mice with MDA-MB-231 xenografts, 45 min p.i., mean ± SD, n = 4-6, read-out: Spleen uptake) was 0.39 ± 0.08 %ID/g, the tissue uptake at 2 h ([2]; spleen, nude mice with MDA-MB-231 xenografts, 2 h p.i., mean ± SD, n = 4-6, read-out: Spleen uptake) was 0.24 ± 0.05 %ID/g and the tissue uptake at 0.75 h ([2]; stomach, nude mice with MDA-MB-231 xenografts, 45 min p.i., mean ± SD, n = 4-6, read-out: Stomach uptake) was 0.34 ± 0.1 %ID/g. For the same compound, the tissue uptake at 2 h ([2]; stomach, nude mice with MDA-MB-231 xenografts, 2 h p.i., mean ± SD, n = 4-6, read-out: Stomach uptake) was 0.3 ± 0.08 %ID/g, the tissue uptake at 0.75 h ([2]; tumor (MDA-MB-231 xenograft), MDA-MB-231 tumor in nude mice, 45 min p.i., mean ± SD, n = 4-6, read-out: Tumor uptake) was 2.18 ± 0.66 %ID/g and the tissue uptake at 2 h ([2]; tumor (MDA-MB-231 xenograft), MDA-MB-231 tumor in nude mice, 2 h p.i., unblocked, mean ± SD, n = 4-6, read-out: Tumor uptake) was 1.25 ± 0.37 %ID/g. For the same compound, the tissue to tissue ratio at 2 h ([2]; tumor / muscle, nude mice with MDA-MB-231 xenografts, 2 h p.i., read-out: Tumor/muscle uptake ratio) was 6.58, the tissue to tissue ratio at 0.75 h ([2]; tumor/blood, nude mice with MDA-MB-231 xenografts, 45 min p.i., read-out: Tumor/blood uptake ratio) was 3.96 and the tissue to tissue ratio at 2 h ([2]; tumor/blood, nude mice with MDA-MB-231 xenografts, 2 h p.i., read-out: Tumor/blood uptake ratio) was 5.68. It also gave a tissue to tissue ratio at 0.75 h ([2]; tumor/muscle, nude mice with MDA-MB-231 xenografts, 45 min p.i., read-out: Tumor/muscle uptake ratio) of 5.45, a dose excreted at 0.75 h ([2]; urine with bladder contents, nude mice with MDA-MB-231 xenografts, 45 min p.i., mean ± SD, n = 4-6, read-out: Urine + Bladder (urinary excretion)) of 49.9 ± 10.9% and a dose excreted at 2 h ([2]; urine with bladder contents, nude mice with MDA-MB-231 xenografts, 2 h p.i., mean ± SD, n = 4-6, read-out: Urine + Bladder (urinary excretion)) of 55 ± 8.79%. For the same compound, the “Radioactivity still bound to the radiopeptide in urine” value (athymic nude mice) was greater than 80%, the tissue uptake at 2 h (AT1 receptor; heart, intravenous, nude mice with MDA-MB-231 xenografts, read-out: Heart uptake, blocked) was 0.23 ± 0.1 %ID/g and the tissue uptake at 2 h (AT1 receptor; intestines without contents, nude mice with MDA-MB-231 xenografts, read-out: Intestines uptake (portion without contents), blocked) was 0.8 ± 0.2 %ID/g. For the same compound, the tissue uptake at 2 h (AT1 receptor; kidneys, intravenous, nude mice with MDA-MB-231 xenografts, read-out: Kidneys uptake, blocked) was 2.01 ± 0.87 %ID/g, the tissue uptake at 2 h (AT1 receptor; muscle/bone, nude mice with MDA-MB-231 xenografts, read-out: Muscle/bone uptake, blocked) was 0.24 ± 0.1 %ID/g and the tissue uptake at 2 h (AT1 receptor; tumor (MDA-MB-231 xenograft), MDA-MB-231 tumor in nude mice, read-out: Tumor uptake, blocked) was 0.6 ± 0.27 %ID/g. For the same compound, the dose excreted at 2 h (AT1 receptor; urine with bladder contents, intravenous, nude mice with MDA-MB-231 xenografts, read-out: Urine + Bladder (urinary excretion), blocked) was 43.5 ± 7.9%, the tissue uptake at 2 h ([3]; blood, intravenous, read-out: Blood uptake, blocked) was 0.85 ± 0.2 %ID/g and the tissue uptake at 2 h ([3]; liver, read-out: Liver uptake, blocked) was 0.85 ± 0.24 %ID/g. The tissue uptake at 2 h ([3]; lungs, intravenous, read-out: Lungs uptake, blocked) was 0.89 ± 0.35 %ID/g, the tissue uptake at 2 h ([3]; pancreas, read-out: Pancreas uptake, blocked) was 0.54 ± 0.12 %ID/g and the tissue uptake at 2 h ([3]; spleen, intravenous, read-out: Spleen uptake, blocked) was 0.35 ± 0.09 %ID/g. The tissue uptake at 2 h ([3]; stomach, read-out: Stomach uptake, blocked) was 0.49 ± 0.18 %ID/g.
